In patent US20230257715A1, “COMPOSITIONS AND METHODS FOR REGULATING ENTEROENDOCRINE CELL DIFFERENTIATION AND USES THEREOF” (The Children's Medical Center Corporation, priority 2020, published 2023):
“And” between values parts separate entries of the source, which are not always exact repeats. Equal entries are not always repeated. “Also recorded” adds a separate entry of the source.

Legend:
human duodenal enteroids [1] = assay: Immunofluorescence staining of CHGA, percentage of CHGA-positive enteroids; format: cell-based
Description: Immunofluorescence staining was performed as previously described with minor modifications (Dekkers J F, Alieva M, Wellens L M, et al. Nat Protoc 2019; 14:1l756-1771)^32. Organoids were grown in and isolated from Matrigel® as noted above. 1-3 wells from a 24-well plate were washed in 200 μL of 1× phosphate-buffered saline (PBS) and moved in suspension to a 1.5 mL microcentrifuge tube. Each tube was centrifuged at 800×g for 5 minutes at 4° C. to pellet organoids. PBS was aspirated, and organoids were fixed in 200 μL of 4% paraformaldehyde (PFA) for 20 minutes on ice, shaking. Each tube was centrifuged again as above, and PFA was aspirated. The organoids were then resuspended in 500 μL of 0.3% Triton-X in PBS and moved to a 48-well plate for the remaining steps. The organoids were permeabilized for 30 minutes at room temperature, shaking. Between each step, organoids were allowed to settle to the bottom of each well, the plate was angled, and the solution aspirated by careful pipetting. Organoids were then blocked with 5% bovine serum albumin in PBS for 1.5 hours at room temperature, shaking. This was followed by three five-minute washes in 500 μL of PBS at room temperature, shaking. […]
This technique was adapted from a previously described method (Borten M A, Bajikar S S, Sasaki N, et al. Sci Rep 2018; 8:5319)^69. […] Any remaining clumped enteroids were manually separated prior to quantification. […]

human duodenal enteroids [2] = assay: qPCR analysis of enteroendocrine and lineage markers in enteroids; format: cell-based
From the text: For differentiation, enteroids were passaged and grown in GM for two days, to allow for ISC expansion, after which the organoids were transitioned to tissue-specific differentiation media (DM) with additional small molecules added as described (TABLE 1A and TABLE 1B). Media was changed every two days, with Tubastatin A being removed after the second day of differentiation. Enteroids and rectoids were taken for analysis after 14 days.
Total RNA was purified from individual wells using TRI®Reagent (Sigma) and the Direct-zol™ RNA kit (Zymo Research), following the manufacturer's protocol. RNA concentration was determined using a NanoDrop™ 1000 spectrophotometer (Life Technologies). RNA was treated with DNAse (Promega) and reverse transcribed using the High-Capacity cDNA Reverse Transcription Kit (Life Technologies). Gene expression analysis was then performed by Real Time quantitative PCR (qPCR) using a QuantStudio 6 Flex thermocycler (Life Technologies). Taqman primers from Life Technologies (TABLE 3) were used. 18S transcripts were used as the internal control and data were expressed using the 2^−ddCt method with Ct limit of 40. Fold change, unless otherwise stated, was compared to total RNA derived from adult whole mucosal tissue biopsies.

CCn1cc(C(=O)O)c(=O)c2c(N)c(F)c(NC3CCCCC3)cc21 [AS, AS1842856]
CHGA expression by immunofluorescence staining (whole well, qualitative) (human duodenal enteroids [1]; FIG. 5B legend): more
percentage of enteroids containing CHGA+ cells (immunofluorescence) (human duodenal enteroids [1]; enteroids, 14-day protocol): 85% and 82%
expression of the enterocyte marker ALP1 (qPCR) (human duodenal enteroids [2]; compared to G14 and G2D12): reduced expression
other intestinal lineage marker mRNA expression (qPCR) (human duodenal enteroids [2]; compared to G14 and G2D12): increased expression of other secretory and ISC markers, including ATOH1, MUC2, LYZ, and LGR5
EE marker mRNA expression (qPCR) (human duodenal enteroids [2]; compared to G14 and G2D12, referenced to whole mucosa, normalized to 18S): induced similar mRNA expression trends as Rim and SP (RSP); also recorded: upregulation of multiple EE markers (CHGA, PAX4, PDX1, NEUROD1, NEUROG3, SST and GIP), many to levels approximating whole mucosa
EE marker mRNA expression, direct comparison of protocols (qPCR) (human duodenal enteroids [2]; compared to RSP / AS alone, FIG. 5.1A and 5A): higher expression of CHGA, NEUROD1, NEUROG3, and SST
MUC2, ALP1 and LGR5 mRNA expression compared to those that received RSP alone (human duodenal enteroids [2]; qPCR, FIG. 7.1A): decreased expression of MUC2 and ALP1 and increased expression of LGR5
